# Assay results taken from patent US20230303483A1, “USE OF STROBILURIN TYPE COMPOUNDS FOR COMBATING PHYTOPATHOGENIC FUNGI CONTAINING AN AMINO ACID SUBSTITUTION F129L IN THE MITOCHONDRIAL CYTOCHROME B PROTEIN CONFERRING RESISTANCE TO QO […]” (BASF SE, priority 2020, published 2023).
# Legend:
# [1] = tested on: Phakopsora pachyrhizi (strain containing the amino acid substitution F129L in the mitochondrial cytochrome b protein); test: Use example 2: protective control of soybean rust on soybeans (PHAKPA P6), inoculation six days after spraying; format: in vivo; conditions: % diseased leaf area on soybean, 16 ppm spray, inoculation six days after treatment, untreated controls usually >85 %
# Description: (§1) The compound was dissolved in a mixture of acetone and/or dimethylsulfoxide and the wetting agent/emulsifier Wettol, which is based on ethoxylated alkylphenoles, in a ratio (volume) solvent-emulsifier of 99 to 1 to give a total volume of 5 ml. Subsequently, water was added to total volume of 100 ml. This stock solution was then diluted with the described solvent-emulsifier-water mixture to the final concentration given in the table below.
# Use example 2. Protective control of soybean rust on soybeans caused by Phakopsora pachyrhizi (PHAKPA P6)
# (§2) Leaves of potted soybean seedlings were sprayed to run-off with the previously described spray solution, containing the concentration of active ingredient as described below. The plants were allowed to air-dry. The trial plants were cultivated for six days in a greenhouse chamber at 23-27° C. and a relative humidity between 60 and 80 %. Then the plants were inoculated with spores of Phakopsora pachyrhizi. The strain used contains the amino acid substitution F129L in the mitochondrial cytochrome b protein conferring resistance to Qo inhibitors. To ensure the success the artificial inoculation, the plants were transferred to a humid chamber with a relative humidity of about 95 % and 23 to 27° C. for 24 hr. The trial plants were cultivated for up to 14 days in a greenhouse chamber at 23 to 27° C. and a relative humidity between 60 and 80 %. The extent of fungal attack on the leaves was visually assessed as % diseased leaf area, the disease level of untreated controls was usually higher than 85 %.
# (§3) All test results below are given for the control of phytopathogenic fungi containing the amino acid substitution F129L in the mitochondrial cytochrome b protein conferring resistance to Qo inhibitors.
# [2] = tested on: Phakopsora pachyrhizi (strain containing the amino acid substitution F129L in the mitochondrial cytochrome b protein); test: Use example 1: protective control of soybean rust on soybeans (PHAKPA P2), inoculation 2 days after spraying; format: in vivo; conditions: % diseased leaf area on soybean, 16 ppm spray, inoculation 2 days after treatment, untreated controls usually >85 %
# Description: as §1
# Use example 1. Protective control of soybean rust on soybeans caused by Phakopsora pachyrhizi (PHAKPA P2)
# as §2, with “active ingredient or their mixture as described” for “active ingredient as described”, “cultivated for 2 days in” for “cultivated for six days in”, “% and 20 to 24°” for “% and 23 to 27°”, “20 to 24° C. for” for “23 to 27° C. for”
# as §3
SMILES,PHAKPA Disease level (%) P6 at 16 ppm [1],PHAKPA Disease level (%) P2 at 16 ppm [2]
CO/N=C(/C(=O)OC)c1ccccc1CO/N=C(\C)C#Cc1cccc(C(F)(F)F)c1 [Example 41],67%,50%
CO/N=C(/C(=O)OC)c1cccc(C)c1CO/N=C(\C)C#Cc1cccc(C)c1 [Example 42],6%,3%
CO/N=C(/C(=O)OC)c1ccccc1CO/N=C(\C)C#Cc1cccc(C)c1 [Example 43],27%,40%
CNC(=O)/C(=N/OC)c1ccccc1CO/N=C(\C)C#Cc1cccc(C(F)(F)F)c1 [Example 44],5%,1%
CO/N=C(/C(=O)OC)c1cccc(C)c1CO/N=C(\C)C#Cc1ccccc1Br [Example 45],22%,25%
CO/N=C(/C(=O)OC)c1ccccc1CO/N=C(\C)C#Cc1ccccc1Br [Example 46],37%,47%
CNC(=O)/C(=N/OC)c1cccc(C)c1CO/N=C(\C)C#Cc1ccccc1Br [Example 47],0%,0%
CNC(=O)/C(=N/OC)c1ccccc1CO/N=C(\C)C#Cc1ccccc1Br [Example 48],2%,0%
CNC(=O)/C(=N/OC)c1cccc(C)c1CO/N=C(\C)C#Cc1ccccc1C [Example 49],0%,0%
CNC(=O)/C(=N/OC)c1ccccc1CO/N=C(\C)C#Cc1ccccc1C [Example 51],0%,0%
CO/N=C(/C(=O)OC)c1ccccc1CO/N=C(\C)C#Cc1cccc(OC(F)(F)F)c1 [Example 52],33%,13%
CNC(=O)/C(=N/OC)c1ccccc1CO/N=C(\C)C#Cc1cccc(OC(F)(F)F)c1 [Example 53],0%,0%
CO/N=C(/C(=O)OC)c1ccccc1CO/N=C(\C)C#Cc1ccc(Br)cc1 [Example 54],25%,22%
CNC(=O)/C(=N/OC)c1ccccc1CO/N=C(\C)C#Cc1ccc(Br)cc1 [Example 55],40%,23%
CO/N=C(/C(=O)OC)c1cccc(C)c1CO/N=C(\C)C#Cc1ccc(Br)cc1 [Example 56],37%,18%
CNC(=O)/C(=N/OC)c1cccc(C)c1CO/N=C(\C)C#Cc1cccc(C)c1 [Example 57],0%,0%
CNC(=O)/C(=N/OC)c1ccccc1CO/N=C(\C)C#Cc1cccc(C)c1 [Example 58],4%,2%
CNC(=O)/C(=N/OC)c1cccc(C)c1CO/N=C(\C)C#Cc1ccc(Br)cc1 [Example 59],28%,13%
CO/N=C(/C(=O)OC)c1ccccc1CO/N=C(\C)C#Cc1ccccc1F [Example 60],17%,40%
CO/N=C(/C(=O)OC)c1cccc(C)c1CO/N=C(\C)C#Cc1ccccc1F [Example 61],8%,8%

SMILES,PHAKPA Disease level (%) P6 at 16 ppm [1],PHAKPA Disease level (%) P2 at 16 ppm [2]
CNC(=O)/C(=N/OC)c1ccccc1CO/N=C(\C)C#Cc1ccccc1F [Example 62],2%,2%
CNC(=O)/C(=N/OC)c1cccc(C)c1CO/N=C(\C)C#Cc1ccccc1F [Example 63],0%,0%
CO/N=C(/C(=O)OC)c1cccc(C)c1CO/N=C(\C)C#Cc1ccc(C(F)(F)F)cc1 [Example 64],60%,43%
CO/N=C(/C(=O)OC)c1ccccc1CO/N=C(\C)C#Cc1ccc(C(F)(F)F)cc1 [Example 65],70%,80%
CO/N=C(/C(=O)OC)c1cccc(C)c1CO/N=C(\C)C#Cc1ccccc1C(F)(F)F [Example 66],30%,17%
CO/N=C(/C(=O)OC)c1ccccc1CO/N=C(\C)C#Cc1ccccc1C(F)(F)F [Example 67],60%,50%
CNC(=O)/C(=N/OC)c1cccc(C)c1CO/N=C(\C)C#Cc1ccccc1C(F)(F)F [Example 68],1%,0%
CNC(=O)/C(=N/OC)c1ccccc1CO/N=C(\C)C#Cc1ccccc1C(F)(F)F [Example 69],2%,1%
CO/C=C(/C(=O)OC)c1cccc(C)c1CO/N=C(\C)C#Cc1ccc(F)cc1 [Example 70],0%,0%
CO/N=C(/C(=O)OC)c1ccccc1CO/N=C(\C)C#Cc1cccc(Cl)c1 [Example 71],17%,20%
CO/N=C(/C(=O)OC)c1cccc(C)c1CO/N=C(\C)C#Cc1cccc(Cl)c1 [Example 72],8%,7%
CNC(=O)/C(=N/OC)c1ccccc1CO/N=C(\C)C#Cc1cccc(Cl)c1 [Example 73],0%,1%
CO/N=C(/C(=O)OC)c1ccccc1CO/N=C(\C)C#Cc1ccccc1Cl [Example 74],47%,42%
CO/N=C(/C(=O)OC)c1cccc(C)c1CO/N=C(\C)C#Cc1ccccc1Cl [Example 75],40%,22%
CNC(=O)/C(=N/OC)c1ccccc1CO/N=C(\C)C#Cc1ccccc1Cl [Example 76],4%,3%
CNC(=O)/C(=N/OC)c1cccc(C)c1CO/N=C(\C)C#Cc1cccc(Cl)c1 [Example 77],0%,0%
CNC(=O)/C(=N/OC)c1cccc(C)c1CO/N=C(\C)C#Cc1ccccc1Cl [Example 78],0%,0%
CNC(=O)/C(=N/OC)c1ccccc1CO/N=C(\C)C#Cc1ccc(Cl)cc1F [Example 83],22%,17%
CNC(=O)/C(=N/OC)c1ccccc1CO/N=C(\C)C#Cc1ccc2c(c1)OC(F)(F)O2 [Example 84],67%,77%
CO/N=C(/C(=O)OC)c1ccccc1CO/N=C(\C)C#Cc1ccc2c(c1)OC(F)(F)O2 [Example 85],83%,100%
